Laboratory results: patent US9561228B2 (Celgene Avilomics Research, Inc., priority 2013, dated 2017)
Where two headings read alike, the source gives them in different places.

Experiments:
[1] = system: ERK1/2 phosphorylation of p90RSK in HT29 cells; experiment: pRSK MSD Assay in HT29 cells; assay type: cell-based; conditions: Homo sapiens, HT-29, read-out: ERK1/ERK2 PRSK MSD HT29 EC50
In short: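 Serum-starved HT29 cells (0.1% FBS overnight) treated with test compound for 120 min at 37° C, then lysed with protease and phosphatase inhibitors. Phospho-p90RSK quantified by MSD sandwich immunoassay: RSK capture antibody, phospho-RSK detection antibody plus Sulfo-tagged antibody, electrochemiluminescence read.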

[2] = system: ERK1/2 phosphorylation of p90RSK in A375 cells; experiment: Detection of total and phosphor-RSK by MSD ELISA (A375); assay type: cell-based; conditions: Homo sapiens, A-375, read-out: ERK1/ERK2 PRSK A375 EC50
Method: Detection of Total and Phosphor-RSK by MSD ELISA (A375)
(§1) The protocol below describes an assay to measure the kinase activity of ERK1/2 to phosphorylate a substrate, p90RSK, in the presence or absence of a test compound.
A375 cells were grown in DMEM/10% FBS. Twenty four hours prior to the assay, 50,000 cells per well were plated in a 96 well flat bottom plate. Once cells attached to the plate, the medium was replaced with 100 ul of DMEM/0.1% FBS. Cells were cultured overnight in an incubator at 37° C.
Compound stock solutions of 10 mM in DMSO were prepared. 1000× dilutions were then prepared in DMSO. 1 uL of DMSO solution was then transferred to 1 ml DMEM/0.1% FBS in a deep well plate. Cell plate media was discarded, followed by addition of 100 uL of the compound-containing media. The preparation was incubated at 37° C. for 2 hrs.
Cell lysates were prepared as described below.
pRSK or Total RSK MSD Assay
(§2) MSD plates: Blank MSD plates were coated with 30 uL capture antibody (BD 610226) at a final concentration of 1 ug/mL in PBS. Both pRSK and total RSK MSD assays used the same capture antibody at the same concentration. Antibody stock concentration was 250 ug/mL. Once antibody solution was added to the MSD plate, the sides were tapped to be certain it was coated completely (visual inspection). It was then covered and placed at 4° C. overnight on a level surface.
(§3) Block MSD Plate: The coating antibody was removed and the plate was washed on a plate washer in MSD wash buffer. The last bit of wash solution was tapped out and 150 uL/well of 3% BSA in MSD wash buffer was added in. The preparation was placed on a shaker at room temperature for at least an hour.
Add samples: Media was removed from compound-treated cells and replaced with 55 uL/well MSD cell lysis buffer containing protease and phosphotase I & II inhibitors. The preparation was incubated on a shaker in a cold room for 30-45 min. The blocked MSD plate was washed a on plate washer, tapping out the last bit of wash solution, followed by addition of 50 uL (of the 55 ul) cell lysate in a well-well transfer. The preparation was covered and incubated on a shaker at room temp for 2 hours. The lysate was removed, washed on a plate washer 3 times, and the last bit of wash buffer was tapped out and replace with 25 uL/well detection antibody (described below).
For pRSK detection, a pRSK antibody stock of 21 ug/mL was prepared as follows: 1 ug/mL pRSK Ser380 antibody (Cell Signaling Technology, Cat. #9335)+1:750 anti-rabbit SulfoTag (Mesoscale Discovery, Cat. # R32AB-1) in 1% BSA in MSD wash buffer.
(§4) For total RSK detection, a total RSK antibody stock of 200 ug/mL was prepared as follows: 1 ug/mL total RSK (Santa Cruz sc-231G) antibody+1:750 anti-goat SulfoTag (from MSD, R32AG-1) in 1% BSA in MSD wash buffer.
The plate was incubated for 1 hr at room temperature on a shaker, followed by three washings. The last bit of wash buffer was tapped out. 150 uL/well 1×MSD Read buffer was added and the plate was then analyzed.

[3] = system: ERK1/2 phosphorylation of p90RSK in HCT116 cells; experiment: Detection of total and phospho-RSK by MSD ELISA (HCT116); assay type: cell-based; conditions: Homo sapiens, HCT-116, read-out: ERK1/ERK2 PRSK HCT116 EC50
Method: Detection of Total and Phospho-RSK by MSD ELISA (HCT116)
as §1
HCT116 cells were grown in RPMI/10% FBS. Prior to the assay, 50,000 cells per well were plated in a 96 well flat bottom plate. Cells were cultured overnight in an incubator at 37° C.
Compound stocks were 10 mM in DMSO. A 1000× dilution was made in DMSO. 1 uL of the DMSO solution was transferred to 1 ml RPMI/10% FBS in a deep well plate. Media in the cell plate was discarded, and 100 uL of the compound-containing media was added. The preparation was incubated at 37° C. for 2 hrs.
Preparation of cell lysates are described below.
pRSK or total RSK MSD Assay
as §2, with “to” for “to the”
as §3, with “uL/well” for “uL/well of”, “BSA (MSD Blocker A)” for “BSA”, “added.” for “added in.”
Add samples: Media was removed from compound-treated cells and replaced with 55 uL/well MSD cell lysis buffer containing protease and phosphotase I & II inhibitors. The preparations was incubate on a shaker in a cold room for 30-45 min. The blocked MSD plate was washed on a plate washer, and the last bit of wash solution was tapped out. Next was added 50 uL (of the 55 uL) cell lysate in a well-well transfer. The preparation was covered and incubated on shaker at room temp for 2 hours. The lysate was then removed and washed on plate washer 3 times. The last bit of wash buffer was then tapped out and replaced with 25 uL/well detection antibody (described below).
For pRSK detection, a pRSK antibody stock of 21 ug/mL was prepared as follows: 1 ug/mL pRSK Ser380 antibody (Cell Signaling Technology, Cat. #9335)+1:750 anti-rabbit SulfoTag (from MSD, R32AB-1) in 1% BSA in MSD wash buffer.
as §4
The plate was incubated for 1 hr at room temperature on a shaker, followed by three washes. The last bit of wash buffer was tapped out. Next, 150 uL/well 1×MSD Read buffer was added and the plate was analyzed by the MSD reader.

MEK1 activated ERK1 = target: T1, MEK1 activated ERK1 (Homo sapiens, UniProt P27361); experiment: Omnia continuous-read kinase assay for potency against MEK1 activated ERK1; assay type: biochemical
T1 construct: purchased Millipore (Billerica, Mass.) 14-439-K
In short: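 Apparent IC50 came from initial reaction slopes (RFU vs time) plotted against log inhibitor with a variable-slope fit. Reactions were started with ERK1 (4 nM final) added to 50 μM ATP, roughly at its appKM, and 10 μM Sox-conjugated ST17 peptide in 20 mM Tris pH 7.5, 5 mM MgCl2. Fluorescence was monitored every 71 seconds.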

[4] = system: HT-29 cells (colorectal adenocarcinoma); experiment: Inhibition of cancer cell proliferation, HT-29 (CellTiterGlo, 72 hours); assay type: cell-based; conditions: Homo sapiens
Method: Measurement of Inhibition of Cancer Cell Proliferation (HT-29/Colorectal Adenocarcinoma)
The following protocol used an HT-29 cell line, which cell line is a model for colorectal adenocarcinoma. HT-29 cells were split and 3000 cells in 100 μl of growth medium were added per well of a flat-bottom 96-well plate. A two-fold test compound solution in serum-free RPM1640 was made, starting at 5,000 nM. Then, 3-fold serial dilutions were made across the plate from well 1 to well 11. Well 12, the last well in a row on the plate, was left as untreated control. 100 μl compound solutions were then transferred to the wells, so the total volume of media was 200 μl per well. Plates were returned to a 37° C. incubator, and the cells were cultured for 72 hours. To measure cell proliferation after 72 hours, media was discarded from the plates, 50 μl/well of fresh medium was added, and 50 μl CellTiterGlo solution was added (Promega Cat#G7573). The plate was covered with a dark lid and incubated for 10 min. A white sealing tape was applied to the bottom of the plate, and the plate was read in a luminescence plate reader. […] A 2-fold serial dilution was used to generate 8 cell densities from 50,000-390 cells per well in 50 μl media. 50 μl CellTiterGlo was added per well, and the plate was read in a luminescence plate reader after 10 min. The reading was plotted vs. cell number to generate a standard curve and the equation of the curve fit. The compound-treated sample luminescence readings were converted to cell numbers using the curve-fit equation. The percent of inhibition, using untreated control as 100% growth, was then calculated. GI50 was then calculated by GraphPad Prism.

[5] = MEK1 activated ERK1, ATP at KM, read-out: ERK1 Omnia WT ATP KM IC50

T1 sequence (P27361 whole entry): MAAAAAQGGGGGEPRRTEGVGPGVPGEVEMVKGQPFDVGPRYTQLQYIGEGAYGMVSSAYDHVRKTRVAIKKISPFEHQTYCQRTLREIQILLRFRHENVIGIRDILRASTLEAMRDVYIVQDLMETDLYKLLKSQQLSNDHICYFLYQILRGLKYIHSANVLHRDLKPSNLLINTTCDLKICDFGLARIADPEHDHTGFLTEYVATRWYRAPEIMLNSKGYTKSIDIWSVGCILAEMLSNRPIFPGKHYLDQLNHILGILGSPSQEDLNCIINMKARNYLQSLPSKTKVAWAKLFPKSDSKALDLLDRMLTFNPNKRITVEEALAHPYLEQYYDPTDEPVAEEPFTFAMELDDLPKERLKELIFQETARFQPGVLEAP

SMILES	EC50 [1]	EC50 [2]	EC50 [3]	IC50 (MEK1 activated ERK1; ATP at KM, WT)	IC50 (MEK1 activated ERK1; [5])	GI50 [4]
C=CC(=O)Nc1cc(C)ccc1Nc1nc(N[C@H]2CCCN(S(=O)(=O)C=C)C2)ncc1C(F)(F)F [Compound I-277, (S)—N-(5-Methyl-2-((5-(trifluoromethyl)-2-((1-(vinylsulfonyl)piperidin-3-yl)amino)pyrimidin-4-yl)amino)phenyl)acrylamide]	> 1000 nM	> 1000 nM	> 1000 nM	–	–	–
C=CC(=O)Nc1cc(OCC(=O)N2CCN(S(C)(=O)=O)CC2)ccc1Nc1nc(Nc2cc(OC)ncc2C)ncc1C(F)(F)F [Compound I-405, N-(2-((2-((2-methoxy-5-methylpyridin-4-yl)amino)-5-(trifluoromethyl)pyrimidin-4-yl)amino)-5-(2-(4-(methylsulfonyl)piperazin-1-yl)-2-oxoethoxy)phenyl)acrylamide]	< 100 nM	101 to 500 nM	< 100 nM	–	–	–
C=CC(=O)Nc1cc(C)ccc1Nc1nc(N[C@@H]2CCN(S(=O)(=O)C=C)C2)ncc1C(F)(F)F [Compound I-280, (R)—N-(5-Methyl-2-((5-(trifluoromethyl)-2-((1-(vinylsulfonyl)pyrrolidin-3-yl)amino)pyrimidin-4-yl)amino)phenyl)acrylamide]	–	> 1000 nM	> 1000 nM	–	–	–
CCC(=O)Nc1cc(C)ccc1Nc1nc(Nc2cc(OC)ncc2C)ncc1C(F)(F)F [Compound I-352, N-(2-((2-((2-methoxy-5-methylpyridin-4-yl)amino)-5-(trifluoromethyl)pyrimidin-4-yl)amino)-5-methylphenyl)propionamide]	–	> 1000 nM	> 1000 nM	–	–	–
C=CC(=O)Nc1cc(C)ccc1Nc1nc(Nc2cc(OC)nc(N3CCC3)c2)ncc1C(F)(F)F [Compound I-329, N-(2-((2-((2-(azetidin-1-yl)-6-methoxypyridin-4-yl)amino)-5-(trifluoromethyl)pyrimidin-4-yl)amino)-5-methylphenyl)acrylamide]	101 to 500 nM	> 1000 nM	101 to 500 nM	–	–	–
C=CC(=O)Nc1ccccc1Nc1nc(Nc2c[nH]nc2C)ncc1C(F)(F)F [Compound I-330, N-(2-((2-((3-methyl-1H-pyrazol-4-yl)amino)-5-(trifluoromethyl)pyrimidin-4-yl)amino)phenyl)acrylamide]	–	101 to 500 nM	> 1000 nM	–	–	–
C=CC(=O)Nc1cc(C)ccc1Nc1nc(Nc2cnnc(Cl)c2)ncc1C(F)(F)F [Compound I-331, N-(2-((2-((6-chloropyridazin-4-yl)amino)-5-(trifluoromethyl)pyrimidin-4-yl)amino)-5-methylphenyl)acrylamide]	–	501 to 999 nM	> 1000 nM	–	–	–
C=CC(=O)Nc1cc(OC(C)(C)C(N)=O)ccc1Nc1nc(Nc2cc(OC)ncc2C)ncc1C(F)(F)F [Compound I-414, N-(5-((1-amino-2-methyl-1-oxopropan-2-yl)oxy)-2-((2-((2-methoxy-5-methylpyridin-4-yl)amino)-5-(trifluoromethyl)pyrimidin-4-yl)amino)phenyl)acrylamide]	< 100 nM	< 100 nM	–	< 100 nM	–	–
C=CC(=O)Nc1ccccc1Nc1nc(NC2CCN(C(=O)CCCC(=O)NCCCOCCOCCOCCCNC(=O)CCCC[C@@H]3SC[C@@H]4NC(=O)N[C@@H]43)CC2)ncc1Cl [Compound I-300, 5-(4-((4-((2-acrylamidophenyl)amino)-5-chloropyrimidin-2-yl)amino)piperidin-1-yl)-5-oxo-N-(15-oxo-19-((3aS,4S,6aR)-2-oxohexahydro-1H-thieno[3,4-d]imidazol-4-yl)-4,7,10-trioxa-14-azanonadecyl)pentanamide]	> 1000 nM	–	–	–	101 to 500 nM	> 1000 nM
C=CC(=O)Nc1ccccc1Nc1nc(NC2CCC(F)(F)CC2)ncc1Cl [Compound I-127, N-(2-((5-chloro-2-((4,4-difluorocyclohexyl)amino)pyrimidin-4-yl)amino)phenyl)acrylamide]	101 to 500 nM	–	–	–	101 to 500 nM	101 to 500 nM
C=CC(=O)Nc1cc(F)ccc1Nc1nc(N[C@@H]2CCC[C@H](C(N)=O)C2)ncc1C(F)(F)F (racemic) [Compound I-5, Rac-cis-3-((4-((2-acrylamido-4-fluorophenyl)amino)-5-(trifluoromethyl)pyrimidin-2-yl)amino)cyclohexanecarboxamide]	101 to 500 nM	–	–	–	< 100 nM	101 to 500 nM
